Several values for one entry are separate records, joined by “and”; a condition that tells them apart may be missing. Equal entries are not always repeated.
Experiments:
[1] = target: T1, Human neutrophil elastase (HNE) (Homo sapiens, UniProt P08246); assay: HNE colorimetric inhibition and steady-state kinetics assay (MeOSuc-Ala-Ala-Pro-Val-pNA), native conditions; type: biochemical; conditions: inhibitor 0.1-100 μM; for Mode of inhibition (Lineweaver-Burk plots): steady-state kinetics
T1 construct: purchased Abcam
T1 sequence (P08246 30-267): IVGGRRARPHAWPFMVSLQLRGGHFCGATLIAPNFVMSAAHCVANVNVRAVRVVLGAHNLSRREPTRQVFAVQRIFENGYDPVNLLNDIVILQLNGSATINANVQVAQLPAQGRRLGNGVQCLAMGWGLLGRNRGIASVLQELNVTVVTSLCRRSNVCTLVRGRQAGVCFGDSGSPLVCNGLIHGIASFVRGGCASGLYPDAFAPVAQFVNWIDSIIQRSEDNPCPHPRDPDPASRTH
Method: HNE activity was assessed through a colorimetric assay based on the hydrolysis of the synthetic peptide substrate MeOSuc-Ala-Ala-Pro-Val-pNA [37]. To determine the steady-state kinetic parameters, 0.4 μg of HNE (corresponding to a final concentration of approximately 0.05 μM) were added to an incubation buffer consisting of 50 mM Tris-HCl, pH 7.8 containing 500 mM NaCl. The reaction was initiated by adding a fixed volume (20 µL) of intermediate substrate working solutions to the enzyme–buffer mixture, reaching a final reaction volume of 200 µL. These working solutions were prepared by diluting a 20 mM substrate stock solution in DMSO with incubation buffer, ensuring that the final DMSO concentration remained constant at 1% (v/v) across all tested substrate concentrations (ranging from 0.075 to 2.4 mM). This approach was applied to all samples, including blanks, to maintain a uniform solvent environment. The mixtures were incubated at 37 °C for 45 min. […] The reaction was then quenched with 20 μL of 0.45 M trichloroacetic acid (TCA). After cooling on ice for 30 min, the samples were centrifuged at 11,500 rpm for 10 min to remove precipitated proteins. The concentration of p-nitroaniline (p-NA) released into the supernatant was determined by measuring the absorbance at 410 nm. All assays were performed in triplicate, and the kinetic parameters were determined by fitting the experimental data to the Michaelis–Menten equation using GraphPad Prism 8.0 software (GraphPad Software, San Diego, CA, USA).
Stock solutions of both inhibitors were prepared in DMSO and diluted with incubation buffer to obtain intermediate working solutions. A fixed volume of these working solutions was added to each reaction mixture so that the final DMSO concentration remained constant at 1% (v/v) across all inhibitor concentrations. […]
Subsequently, the inhibition constants (Ki) were determined independently from IC50 values by performing steady-state kinetic assays at varying concentrations of both substrate and inhibitors. […]

[2] = target: T2, HNE under oxidizing conditions (oxidized HNE) (Homo sapiens, UniProt P08246); assay: HNE inhibition assay under oxidizing conditions (HNE pre-incubated with 44 mM H2O2); type: biochemical; conditions: for remaining activity at 100 µM: HNE under oxidizing conditions (44 mM H2O2), maximum inhibitor concentration 100 μM, read-out: Residual Activity at Maximum Inhibitor Concentration (%)
T2 construct: purchased Abcam
T2 sequence (P08246 30-247 limits assumed): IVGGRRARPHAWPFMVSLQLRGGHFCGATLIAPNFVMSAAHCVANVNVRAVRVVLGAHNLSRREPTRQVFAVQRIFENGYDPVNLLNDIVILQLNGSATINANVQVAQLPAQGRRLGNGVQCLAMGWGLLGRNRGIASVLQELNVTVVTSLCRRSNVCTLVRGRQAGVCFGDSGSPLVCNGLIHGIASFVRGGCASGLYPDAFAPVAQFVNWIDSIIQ
Method: HNE activity under oxidative conditions was determined using the colorimetric assay described above. Briefly, HNE was pre-incubated with 1 μL of 30% (w/v) H2O2 (final concentration 44 mM in a total reaction volume of 200 μL) for 60 min at 37 °C. The oxidative conditions used in this study were designed to promote cumulative oxidative modifications of HNE rather than to reproduce physiological ROS concentrations, allowing simulation of oxidative stress in chronically inflamed tissues where repeated ROS exposure leads to progressive protein oxidation. The kinetic parameters of oxidized HNE were determined as described above. Subsequently, inhibition assays were performed by initiating the reaction with substrate (final concentration 0.15 mM) in the presence of increasing concentrations of inhibitor (0.1–100 μM). The reaction mixtures were then incubated at 37 °C for 45 min and then terminated by the addition of 20 μL of 0.45 M TCA. Samples were cooled on ice, centrifuged, and analyzed as described in Section 2.4.
Residual enzymatic activity (%) was calculated relative to HNE activity in the absence of inhibitors, set as 100%. The lowest observed activity under the experimental conditions was taken as the maximal inhibition achieved within this assay range.

[3] = Inhibitor stability under oxidative conditions by direct-infusion ESI-MS; type: physicochemical; conditions: 100 μM compound, 44 mM H2O2, 30 min, 37 °C, no HNE
Method: Mass spectrometry analysis was performed using an Advion Interchim Scientific expression® Compact Mass Spectrometer (CMS) (Advion Interchim Scientific, Ithaca, NY, USA) equipped with an ESI source. Stock solutions of each inhibitor were prepared in DMSO and diluted in an assay buffer to a final concentration of 100 μM (DMSO ≤ 1% v/v). Aliquots were incubated in the presence or absence of H2O2 (44 mM final concentration) for 30 min at 37 °C, matching the oxidative treatment used in the enzymatic assays. After incubation, samples were diluted 1:1 (v/v) with water containing 0.1% formic acid and directly analyzed in both positive- and negative-ion mode. Mass spectra were analyzed with Mass Express software version 5.1.

[4] = Cytotoxicity on A549 cell monolayers (resazurin reduction assay); type: cell-based; conditions: human, A549 cells (confluent monolayer), 0.1 to 1000 µM, 16 h exposure, read-out: Cell viability (% of untreated control)
Method: Cells were obtained from the American Type Culture Collection (ATCC, Manassas, VA, USA) and cultured according to the supplier’s instructions. Cells were maintained in DMEM supplemented with 10% fetal bovine serum (FBS) and seeded into sterile 96-well plates at a density of 1 × 10^5 cells per well, allowing for the formation of a confluent monolayer prior to treatment. After 24 h incubation at 37 °C (5% CO2), the culture medium was replaced with 200 μL of fresh medium containing ten-fold dilutions of the test compounds, ranging from 0.1 to 1000 µM.
After a 16 h exposure period, cell viability was assessed via the resazurin reduction assay. Briefly, 30 μL of a 0.01% resazurin solution (Sigma-Aldrich, St. Louis, MO, USA) was added to each well and incubated for 4 h at 37 °C. The reduction of resazurin to resorufin by metabolically active cells was quantified using a ClarioSTAR microplate reader (BMG Labtech, Ortenberg, Germany), with excitation and emission wavelengths set at 520 nm and 580 nm, respectively. All experiments were performed in triplicate, and cell viability was expressed as a percentage relative to untreated control wells.

Mode of inhibition (Lineweaver-Burk plots) [1] | IC50 ([1]; substrate 0.15 mM, 37 °C, 45 min, read-out: IC50 against HNE activity) | IC50 ([2]; HNE pre-incubated with 44 mM H2O2, 60 min, 37 °C, substrate 0.15 mM) | remaining activity at 100 µM [2] | Chemical stability under oxidizing conditions (ESI-MS spectra vs untreated control) [3] | Inhibition of oxidized HNE at the highest tested concentration ([2]; 100 μM inhibitor, HNE pre-treated with 44 mM H2O2) | Compound | viability at 16 h [4]
competitive inhibition | 2.8 µM and 2.84 µM | 4 ± 0.41 µM | < 20% | no additional peaks |  | Cc1c(-c2ccnn2C)cc(C(=O)NCc2ccc(S(C)(=O)=O)cn2)c(=O)n1-c1cccc(C(F)(F)F)c1 [Alvelestat] | ~100%
competitive inhibition |  |  | > 80% | no additional peaks | failed to achieve significant inhibition | CC(C)(C)C(=O)Oc1ccc(S(=O)(=O)Nc2ccccc2C(=O)NCC(=O)O)cc1 [Sivelestat] | ~100%

From paper PMC13165411 (Molecules, 2026)
